Source: the METLIN SMRT retention time set (Domingo-Almenara et al. 2019)

assay: gradient 5% acetonitrile 3 min, to 50% in 2 min, to 85% in 15 min, held 3 min, 100 µL/min; settings: column: Zorbax Extend-C18 2.1 x 50 mm; eluents: water / acetonitrile, 0.1% formic acid
Outline: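 Over 3 months, pure standards in mixtures of ~100 molecules were run by HPLC coupled to a quadrupole time-of-flight mass spectrometer in positive and negative ionization mode. The column was a Zorbax Extend-C18 (2.1 × 50 mm, 1.8 μm) at 100 μL/min, eluted with water and acetonitrile each holding 0.1% formic acid, with 40 μL dead and 900 μL dwell volumes. Retention time was determined from adduct peaks chosen by software and checked manually.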

SMILES	RP-LC retention time
O=C1C(c2ccncc2)N(Cc2ccccc2)C(=O)CN1c1ccccc1 (stereo unspecified)	684 s
Cc1nn(CCC(=O)Nc2cccc(Cl)c2)c(=O)c2nn(-c3ccccc3)c(C)c12	867 s
O=C(Nc1ccccc1Br)N1CCCC1c1nc(-c2ccc(F)cc2F)no1 (stereo unspecified)	1070 s
COc1ccc(C(=O)NC2CCN(c3ccc(=O)n(C)n3)C2)c(OC)n1 (stereo unspecified)	742 s
Cc1cc(-c2nnc(NC(=O)c3cnn(-c4ccccc4)c3C)o2)c(C)o1	798 s
CN1CCN(c2ncncc2N2CCC(C(=O)N3CCCCC3)CC2)CC1	557 s
Cc1cc(F)ccc1NC(=O)C1CCN(c2cnc3ccccc3n2)CC1	780 s
Cc1cc2c(cc1NC(=O)C1CCC(C)CC1)n(C)c(=O)c(=O)n2C (stereo unspecified)	733 s
CCCc1cc(N2CCN(C(=O)c3ccc(N(C)C)cc3)CC2)nc2nnc(CC)n12	649 s
CCCNc1cc(N2CCCC(CCC(=O)N(CC)CC)C2)ncn1 (stereo unspecified)	658 s
Cn1c(=O)c2cc(C(=O)Nc3ccc(F)cc3)cnc2n(-c2ccc(F)cc2)c1=O	960 s
COc1ccc(-c2cn3c(CC(=O)Nc4ccc(C)cn4)csc3n2)cc1OC	653 s
CCOc1ccc(NC(=O)C2CCN(c3cncnc3N3CCOCC3)CC2)cc1	651 s
CCc1nc2c(NC(=O)Cc3cccnc3)cccn2n1	556 s
COc1ccc(CCC(=O)N2CCC3(C2)C(=O)N(C)c2ccc(OC)cc23)cc1 (stereo unspecified)	800 s
Cc1cc2nc(C(F)(F)F)c(=O)n(C(C)C(=O)NCCN3CCOCC3)c2cc1C (stereo unspecified)	683 s
O=C(CSc1ccc(-n2cccn2)nn1)NCc1ccco1	653 s
CCN1C(=O)COc2cc(-c3noc(C(=O)NCCc4ccccc4)n3)ccc21	953 s
COc1ccc(NC(=O)COc2ccc(-c3nnc4n3CCCC4)cc2)cc1OC	626 s
CCc1nc2cc(-c3noc(Cc4ccc(NC(C)=O)cc4)n3)ccc2o1	916 s
CCN1C(=O)c2cccnc2Sc2cc(NC(=O)c3ccccc3C)ccc21	833 s
CNC(=O)c1cc(N2CCOCC2)nc2c(C)cccc12	704 s

SMILES	RP-LC retention time
Cc1cccc(NC(=O)N2CCc3c(c(-c4nnc(-c5ccccc5Cl)o4)nn3C)C2)c1	902 s
COc1ccc(NC(=O)c2nnc(CSCC(=O)N3CCN(c4ccccn4)CC3)s2)cc1	629 s
CCc1ccccc1NC(=O)N1CCc2nc(-c3ccc(Cl)cc3)ncc2C1	1160 s
Cc1nn(-c2ccccc2)c(C)c1S(=O)(=O)N1CCC(C(=O)Nc2ccc(Cl)cc2)CC1	726 s
CCC(C)NC(=O)C1CCCN(C(=O)Nc2ccc(NC(=O)Nc3ccccc3)cc2)C1 (stereo unspecified)	730 s
Cc1ccc(C)c(Cn2nc(-c3nc(C)no3)ccc2=O)c1	916 s
Cc1ccc(-c2csc(NC(=O)c3sc(-c4ccccc4)nc3C)n2)cc1C	1390 s
Cc1nc(Cn2cccc2C(=O)Nc2ccc(C)c(F)c2)no1	889 s
CCn1nc(C)c(S(=O)(=O)N2CCN(C(=O)C(C)Oc3ccccc3)CC2)c1C (stereo unspecified)	780 s
COc1ccc(-c2nc3nc(C)cc(C)n3c2Nc2ccc(Cl)cc2)cc1	730 s
COC1CCN(C(=O)NC(C)C)CC1	599 s
CCCN(C(=O)c1ccc(C)cc1)c1nc(-c2ccccc2)cs1	809 s
CCn1ccc2sc(C)c(C(=O)NC(C)c3ccc(F)cc3)c2c1=O (stereo unspecified)	808 s
Cc1ccc(-c2csc(NC(=O)Cc3csc(-c4ccccc4)n3)n2)cc1	1210 s
CCCNC(=O)C1CCCN(c2nc3ncn(CC(=O)Nc4cc(F)ccc4F)c(=O)c3s2)C1 (stereo unspecified)	716 s
Cc1cc(N2CCCCC2)n2nc(CN3CCN(c4ccccc4F)CC3)nc2n1	673 s
Cc1ccc2cc(CCC(=O)NCc3nc4ccccc4n3C)c(=O)[nH]c2c1	617 s
O=C(NCC#CCN1CCc2ccccc2C1)Nc1cccs1	557 s
Cc1cc(C)c(S(=O)(=O)NCCn2c(C)cnc2C2CC2)c(C)c1	647 s
Cc1cccn2cc(-c3ccc(NS(=O)(=O)c4ccc(Br)cc4)cc3)nc12	674 s
Cc1cc(C)c2sc(NC(=O)c3ccco3)nc2c1	881 s
CCc1nc(-c2csc(S(=O)(=O)N3CCCC(C(=O)N4CCOCC4)C3)c2)no1 (stereo unspecified)	796 s

SMILES	RP-LC retention time
COC(=O)c1sc2ccccc2c1NC(=O)c1cccc(OC)c1OC	1020 s
O=C(NC1CCCCCC1)C1CCCN(C(=O)Cc2cccc3ccccc23)C1 (stereo unspecified)	983 s
O=C(Nc1ccc2c(c1)CCC2)Nc1cccn2ncnc12	891 s
CN1CCc2nnc(C3CCN(C(=O)Nc4ccc(Cl)cc4F)C3)n2CC1 (stereo unspecified)	573 s
C[C@H]1CN(C(=O)c2cc(Cl)ccc2F)C[C@@H]1c1nc(-c2ccncc2)no1	857 s
CCCC(=O)Nc1ccc2nc(N3CCN(c4cc(Cl)ccc4C)CC3)cc(C(=O)O)c2c1	746 s
CCn1nnc2c(Nc3cccc(C(C)=O)c3)ncnc21	686 s
Cc1cc(Cl)ccc1S(=O)(=O)N1CC(Cc2nncn2C2CCCC2)C1	808 s
O=C(CC1(O)C(=O)Nc2c(Cl)ccc(Cl)c21)c1ccc(Cl)cc1Cl (stereo unspecified)	879 s
Cc1ccccc1-c1nc(-c2ccc(S(=O)(=O)N3CCCC3)cc2)no1	1240 s
COc1ccc(-n2c(=O)c(C(=O)Nc3cccc(F)c3)c(O)c3cccnc32)cc1	1250 s
CN(C)c1ccc2c(c1)CN(C(=O)c1ccsc1)CCO2	586 s
CC1=C(c2ccc(C)cc2)S(=O)(=O)N=C1N1CCCN(C(=O)c2ccccc2F)CC1	846 s
COc1ccc(C2Cn3nnc(-c4nc(-c5ccc(F)c(F)c5)no4)c3CO2)cc1 (stereo unspecified)	1180 s
COC(=O)CCNC(=O)C1c2ccccc2C(=O)N(c2ccccc2)C12CCCCC2 (stereo unspecified)	826 s
CCOC(=O)c1ccc2nc(C(F)(F)F)nc(N3CCc4ccccc4C3)c2c1	1200 s
COc1ccc(-c2nc(C3CC(=O)N(c4ccc(OC)c(OC)c4)C3)no2)cc1OC (stereo unspecified)	787 s
Cc1ccc(S(=O)(=O)N2CCC(CC(=O)NCCN(C)Cc3ccccc3)CC2)cc1	683 s
Cc1cc(C)c2c(N3CCOCC3)nc(C(=O)NCc3ccc(F)cc3F)nc2n1	651 s
CCOc1ccc(-c2cc3c(=O)n(Cc4nc(-c5ccccc5C)no4)ccn3n2)cc1	1170 s
O=C(NCc1ccco1)C1CCN(c2ncccc2-c2nc(-c3ccccc3)no2)CC1	964 s
COc1ccc(OC)c(NC(=O)N2c3ccccc3CC2c2nc(C3CC3)no2)c1 (stereo unspecified)	1110 s
